In general, EC50 refers to the concentration that produces a half-maximal response.

The target of this experiment is GluA4 (Rattus norvegicus, UniProt P19493, L505Y/L672V). The experiment is described as follows: whole-cell patch clamp in tsA201 cells, agonist dose-response. It is filed as cell-based. (In patch-clamp work, channel activity is measured electrically.)
GluA4, sequence (P19493 21-902 L505Y/L672V): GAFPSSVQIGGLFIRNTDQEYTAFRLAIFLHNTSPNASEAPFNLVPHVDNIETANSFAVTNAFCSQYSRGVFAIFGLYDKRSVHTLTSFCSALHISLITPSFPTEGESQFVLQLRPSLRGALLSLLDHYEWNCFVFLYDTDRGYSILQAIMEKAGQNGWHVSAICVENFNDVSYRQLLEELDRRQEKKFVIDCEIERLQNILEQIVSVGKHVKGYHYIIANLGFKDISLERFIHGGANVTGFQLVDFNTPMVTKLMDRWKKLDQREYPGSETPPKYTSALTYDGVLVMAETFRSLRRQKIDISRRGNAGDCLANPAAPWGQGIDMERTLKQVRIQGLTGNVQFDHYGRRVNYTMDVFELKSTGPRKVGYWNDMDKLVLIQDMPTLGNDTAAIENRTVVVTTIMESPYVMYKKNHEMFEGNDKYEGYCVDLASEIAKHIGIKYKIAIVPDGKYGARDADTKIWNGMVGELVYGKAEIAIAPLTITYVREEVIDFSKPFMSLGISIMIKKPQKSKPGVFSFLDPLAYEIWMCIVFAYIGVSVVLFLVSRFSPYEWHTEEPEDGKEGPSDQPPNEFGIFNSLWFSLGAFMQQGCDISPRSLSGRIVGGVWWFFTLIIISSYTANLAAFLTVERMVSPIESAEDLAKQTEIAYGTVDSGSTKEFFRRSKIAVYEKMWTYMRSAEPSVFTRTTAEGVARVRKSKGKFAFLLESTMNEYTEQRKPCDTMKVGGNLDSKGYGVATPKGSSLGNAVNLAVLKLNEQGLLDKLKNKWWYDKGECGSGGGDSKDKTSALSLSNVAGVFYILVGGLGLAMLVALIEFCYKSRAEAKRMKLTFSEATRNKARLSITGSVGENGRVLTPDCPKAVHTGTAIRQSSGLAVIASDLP

Compound `C=C(C)[C@H]1CN[C@H](C(=O)O)[C@H]1CC(=O)O` [KA, kainate] registered an EC50 of 324 ± 35 µM.

The values above are taken from paper PMC2844711 (The Journal of neuroscience : the official journal of the …, 2010).
